How the values were obtained:
[1] = molecular target: Delta-type opioid receptor (Mus musculus, UniProt P32300); experiment: Agonist activity at delta opioid receptor in ICR mouse vas deferens assessed as inhibition of electrically-induced smooth muscle contraction after 3 mins; type: functional, tissue-based
Mu-type opioid receptor [2] = molecular target: Mu-type opioid receptor (Homo sapiens, UniProt P35372); experiment: Displacement of [3H]DAMGO from mu opioid receptor transfected in […] HN9.10 cells after 3 hrs by liquid scintillation counter; type: cell-based
[3] = molecular target: Kappa-type opioid receptor (Homo sapiens, UniProt P41145); experiment: Displacement of [3H]U69593 from human kappa opioid receptor expressed in CHO cells after 60 mins by liquid scintillation counter; type: cell-based
[4] = molecular target: Delta-type opioid receptor (Homo sapiens, UniProt P41143); experiment: Displacement of [3H]DPDPE from delta opioid receptor transfected in […] HN9.10 cells after 3 hrs by liquid scintillation counter; type: cell-based
Mu-type opioid receptor [5] = molecular target: Mu-type opioid receptor (Cavia porcellus, UniProt P97266); experiment: Agonist activity at mu opioid receptor in Hartley guinea pig ileum longitudinal muscle myenteric plexus assessed as inhibition of electrically-induced smooth muscle contraction after 3 mins; type: functional, tissue-based
[6] = molecular target: Mu-type opioid receptor (Cavia porcellus) (UniProt P97266); experiment: Agonist activity at mu opioid receptor in Hartley guinea pig ileum longitudinal muscle myenteric plexus assessed as inhibition of electrically-induced smooth muscle contraction at 1 uM after 3 mins; type: functional, tissue-based
[7] = molecular target: Delta-type opioid receptor (Mus musculus) (UniProt P32300); experiment: Agonist activity at delta opioid receptor in ICR mouse vas deferens assessed as inhibition of electrically-induced smooth muscle contraction at 1 uM after 3 mins; type: functional, tissue-based
Delta-type opioid receptor (Mus musculus), sequence (P32300 whole entry): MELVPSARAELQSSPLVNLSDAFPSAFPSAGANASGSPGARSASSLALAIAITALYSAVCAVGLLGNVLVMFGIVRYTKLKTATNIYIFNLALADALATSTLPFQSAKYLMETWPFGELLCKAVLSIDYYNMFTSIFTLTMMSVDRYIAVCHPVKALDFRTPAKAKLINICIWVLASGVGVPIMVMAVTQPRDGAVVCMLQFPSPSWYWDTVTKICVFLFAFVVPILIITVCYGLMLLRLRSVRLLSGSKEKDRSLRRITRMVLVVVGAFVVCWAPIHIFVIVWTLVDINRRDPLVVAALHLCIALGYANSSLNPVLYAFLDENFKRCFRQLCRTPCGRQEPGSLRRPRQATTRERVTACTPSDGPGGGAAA

Delta-type opioid receptor (Homo sapiens, UniProt P41143), sequence (P41143 whole entry): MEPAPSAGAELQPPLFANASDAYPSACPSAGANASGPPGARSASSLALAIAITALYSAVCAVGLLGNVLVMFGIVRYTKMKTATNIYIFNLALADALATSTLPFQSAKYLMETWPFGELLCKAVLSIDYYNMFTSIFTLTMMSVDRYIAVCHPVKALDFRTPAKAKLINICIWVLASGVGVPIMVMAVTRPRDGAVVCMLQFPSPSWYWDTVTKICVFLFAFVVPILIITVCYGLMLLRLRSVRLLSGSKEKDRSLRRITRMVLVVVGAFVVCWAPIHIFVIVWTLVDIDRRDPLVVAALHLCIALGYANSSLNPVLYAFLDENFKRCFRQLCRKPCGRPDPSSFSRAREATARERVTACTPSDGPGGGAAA
Kappa-type opioid receptor, sequence (P41145 whole entry): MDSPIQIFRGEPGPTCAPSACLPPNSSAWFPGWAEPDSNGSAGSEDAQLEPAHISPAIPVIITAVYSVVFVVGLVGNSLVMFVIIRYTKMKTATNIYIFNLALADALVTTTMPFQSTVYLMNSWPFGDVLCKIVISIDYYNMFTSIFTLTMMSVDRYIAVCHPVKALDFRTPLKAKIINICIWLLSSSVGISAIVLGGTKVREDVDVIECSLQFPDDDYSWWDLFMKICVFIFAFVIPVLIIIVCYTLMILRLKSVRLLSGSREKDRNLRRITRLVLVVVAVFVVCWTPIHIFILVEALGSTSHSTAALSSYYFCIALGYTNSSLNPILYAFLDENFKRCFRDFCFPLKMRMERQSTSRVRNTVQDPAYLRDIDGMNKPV
Mu-type opioid receptor (Cavia porcellus), sequence (P97266 whole entry): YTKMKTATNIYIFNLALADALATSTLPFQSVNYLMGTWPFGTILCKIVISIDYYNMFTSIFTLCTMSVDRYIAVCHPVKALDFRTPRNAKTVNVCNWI
Mu-type opioid receptor (Cavia porcellus, UniProt P97266), sequence (P97266 whole entry): as above
Mu-type opioid receptor (Homo sapiens, UniProt P35372), sequence (P35372 whole entry): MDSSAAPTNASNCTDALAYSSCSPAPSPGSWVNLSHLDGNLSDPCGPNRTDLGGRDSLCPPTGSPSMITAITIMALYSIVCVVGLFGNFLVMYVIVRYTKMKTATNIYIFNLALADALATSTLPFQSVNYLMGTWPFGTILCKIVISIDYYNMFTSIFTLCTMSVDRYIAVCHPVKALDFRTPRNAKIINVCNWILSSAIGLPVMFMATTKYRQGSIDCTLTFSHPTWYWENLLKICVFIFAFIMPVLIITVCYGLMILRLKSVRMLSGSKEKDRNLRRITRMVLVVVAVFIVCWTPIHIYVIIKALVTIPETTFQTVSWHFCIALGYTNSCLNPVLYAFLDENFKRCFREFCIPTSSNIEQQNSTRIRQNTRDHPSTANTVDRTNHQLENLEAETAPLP
Delta-type opioid receptor (Mus musculus, UniProt P32300), sequence (P32300 whole entry): as the sequence (P32300 whole entry) above

| Compound | IC50 [1] | Ki (Mu-type opioid receptor [2]) | Ki ([3]; read-out: Ki) | Ki ([4]; read-out: Ki) | IC50 (Mu-type opioid receptor [5]) | Ki ([3]; cho) | inhibition [6] | inhibition [7] | Ki [4] |
| --- | --- | --- | --- | --- | --- | --- | --- | --- | --- |
| N[C@@H](Cc1ccc(O)cc1)C(=O)N1C[C@@H]2C[C@H]1C(=O)N[C@H](Cc1ccccc1)C(=O)N[C@H](Cc1ccccc1)C(=O)N2 | 1400 nM | 63 nM | > 10000 nM | 1010 nM | 480 nM | – | – | – | – |
| Br.N[C@H]1C[C@@H](C(=O)N[C@H](Cc2ccccc2)C(=O)N[C@H](Cc2ccccc2)C(=O)O)N(C(=O)[C@@H](N)Cc2ccc(O)cc2)C1 | – | > 10000 nM | – | > 10000 nM | – | Not Active | 2% | 3.6% | – |
| Br.NC(=O)[C@H](Cc1ccccc1)NC(=O)[C@@H](Cc1ccccc1)NC(=O)[C@@H]1C[C@H](N)CN1C(=O)[C@@H](N)Cc1ccc(O)cc1 | – | 760 nM | – | – | – | Not Active | 12% | 14% | Not Active |
| Br.NC(=O)[C@@H](Cc1ccccc1)NC(=O)[C@H](Cc1ccccc1)NC(=O)[C@@H]1C[C@H](N)CN1C(=O)[C@@H](N)Cc1ccc(O)cc1 | – | > 10000 nM | – | – | 2300 nM | Not Active | – | 5.4% | Not Active |
| Br.N[C@H]1C[C@@H](C(=O)N[C@@H](Cc2ccccc2)C(=O)N[C@H](Cc2ccccc2)C(=O)O)N(C(=O)[C@@H](N)Cc2ccc(O)cc2)C1 | – | 760 nM | – | – | – | Not Active | 3.2% | 1.3% | Not Active |
| N[C@@H](Cc1ccc(O)cc1)C(=O)N1C[C@@H]2C[C@H]1C(=O)N[C@H](Cc1ccccc1)C(=O)N[C@@H](Cc1ccccc1)C(=O)N2 | 950 nM | 38 nM | > 10000 nM | 860 nM | 330 nM | – | – | – | – |
| Br.N[C@H]1C[C@@H](C(=O)N[C@H](Cc2ccccc2)C(=O)N[C@@H](Cc2ccccc2)C(=O)O)N(C(=O)[C@@H](N)Cc2ccc(O)cc2)C1 | – | 1010 nM | – | – | – | Not Active | 11% | 3.6% | Not Active |
| Br.NC(=O)[C@@H](Cc1ccccc1)NC(=O)[C@@H](Cc1ccccc1)NC(=O)[C@@H]1C[C@H](N)CN1C(=O)[C@@H](N)Cc1ccc(O)cc1 | – | 3700 nM | – | – | – | Not Active | 0.9% | 0% | Not Active |
